Assay results taken from patent publication US10568963B2, “Multifunctional nanoplatforms for fluorescence imaging and photodynamic therapy developed by post-loading photosensitizer and fluorophore to polyacrylamide nanoparticles” (HEALTH RESEARCH, INC., priority 2009, dated 2020).

Legend:
[1] = in vivo; cited from earlier work
[2] = in vivo; cited from earlier work; remark: listed apart in the source
Colon 26 tumors = assay: In-vivo photodynamic therapy (PDT), tumor regrowth monitored 60 days; details: BALB/c mice bearing Colon 26 tumors, PS dose 0.47 moles/kg, light 665 nm, 135 J/cm^2, 75 mW/cm^2, 24 hours post-injection
Procedure: Eight- to twelve-week-old BALB/cAnNCr mice (Jackson Laboratory, Bar Harbor, Me.) were inoculated subcutaneously (s.c.) with 1×10^6 Colon 26 cells. When tumors reached 40-70 mm^3, mice were injected i.v. (tail vein) with PS 1 (formulated in 1% Tween 80/D5W) or PAA nanoconstructs/formulations 6-10 suspended in water and further diluted in D5W. 24 hours post i.v. injection (dose of PS 1: […]), mice (BALB/c mice bearing Colon 26 tumors, 10 mice/group) were restrained in plexiglass holders and tumors were irradiated at 665 nm with a fluence and fluence rate of 135 J/cm^2 at 75 mW/cm^2, respectively, using a pumped argon-dye laser. The growth of tumors was measured two to three times per week and the mice were monitored for a total of 60 days post PDT treatment. When the tumor regrowth was >400 mm^3, the mice were euthanized according to the guidelines of the institute approved animal protocol.

Water solubility = assay type: physicochemical

solubility in water (Water solubility) | Compound | plasma half lives [1] [h] | skin phototoxicity [2] | PDT response (no tumor regrowth) / tumor cure (Colon 26 tumors) [%] | PDT response (no tumor regrowth) / tumor cure (Colon 26 tumors; listed as HPPH 1) [%]
– | CCCCCCOC(C)c1c(C)c2cc3nc(c4c5[nH]c(cc6nc(cc1[nH]2)C(C)=C6CC)c(C)c5C(=O)C4)[C@@H](CCC(=O)O)[C@@H]3C (stereo partly drawn) [HPPH, 3-(1′-hexyloxyethyl)pyropheophorbide-a] | ~25 | low skin phototoxicity | 40 | 40
water insoluble | CC1(C)C(=CC=C2CCCC(C=CC3=[N+](CCCCS(=O)(=O)[O-])c4ccc5ccccc5c4C3(C)C)=C2Cl)N(CCCCS(=O)(=O)[O-])c2ccc3ccccc3c21.[Na+] [cyanine dye 2, IR820] | – | – | – | –
– | iodobenzyl pheophorbide-a | ~25 | – | – | –
